From ChEMBL document CHEMBL1909046, “DrugMatrix in vitro pharmacology data”

Key:
[1] = molecular target: Cytochrome P450 2E1 (Homo sapiens, UniProt P05181); conditions: bti-tn-5b1-4; note: in other assays of this panel Not Active means under 50% inhibition at 10 µM
[2] = DRUGMATRIX: Glutamate, NMDA, Agonism radioligand binding (ligand: [3H] CGP-39653); assay type: cell membranes, Rattus norvegicus, Wistar, Cerebral cortex, Membrane; conditions: Not Active = under 50% inhibition at 10 µM
[3] = DRUGMATRIX: Phosphodiesterase PDE3 enzyme inhibition (substrate: [3H]cAMP + cAMP); assay type: tissue-based, Homo sapiens; conditions: platelet; Not Active = under 50% inhibition at 10 µM
[4] = DRUGMATRIX: Calcium Channel Type L, Phenylalkylamine radioligand binding (ligand: [3H] (-)-Desmethoxyverapamil (D-888)); assay type: cell membranes, Rattus norvegicus, Wistar, Brain, Membrane; conditions: Not Active = under 50% inhibition at 10 µM
[5] = molecular target: Voltage-gated inwardly rectifying potassium channel KCNH2 (Homo sapiens, UniProt Q12809); conditions: hek293; note: in other assays of this panel Not Active means under 50% inhibition at 10 µM
Voltage-gated inwardly rectifying potassium channel KCNH2, sequence (Q12809 whole entry): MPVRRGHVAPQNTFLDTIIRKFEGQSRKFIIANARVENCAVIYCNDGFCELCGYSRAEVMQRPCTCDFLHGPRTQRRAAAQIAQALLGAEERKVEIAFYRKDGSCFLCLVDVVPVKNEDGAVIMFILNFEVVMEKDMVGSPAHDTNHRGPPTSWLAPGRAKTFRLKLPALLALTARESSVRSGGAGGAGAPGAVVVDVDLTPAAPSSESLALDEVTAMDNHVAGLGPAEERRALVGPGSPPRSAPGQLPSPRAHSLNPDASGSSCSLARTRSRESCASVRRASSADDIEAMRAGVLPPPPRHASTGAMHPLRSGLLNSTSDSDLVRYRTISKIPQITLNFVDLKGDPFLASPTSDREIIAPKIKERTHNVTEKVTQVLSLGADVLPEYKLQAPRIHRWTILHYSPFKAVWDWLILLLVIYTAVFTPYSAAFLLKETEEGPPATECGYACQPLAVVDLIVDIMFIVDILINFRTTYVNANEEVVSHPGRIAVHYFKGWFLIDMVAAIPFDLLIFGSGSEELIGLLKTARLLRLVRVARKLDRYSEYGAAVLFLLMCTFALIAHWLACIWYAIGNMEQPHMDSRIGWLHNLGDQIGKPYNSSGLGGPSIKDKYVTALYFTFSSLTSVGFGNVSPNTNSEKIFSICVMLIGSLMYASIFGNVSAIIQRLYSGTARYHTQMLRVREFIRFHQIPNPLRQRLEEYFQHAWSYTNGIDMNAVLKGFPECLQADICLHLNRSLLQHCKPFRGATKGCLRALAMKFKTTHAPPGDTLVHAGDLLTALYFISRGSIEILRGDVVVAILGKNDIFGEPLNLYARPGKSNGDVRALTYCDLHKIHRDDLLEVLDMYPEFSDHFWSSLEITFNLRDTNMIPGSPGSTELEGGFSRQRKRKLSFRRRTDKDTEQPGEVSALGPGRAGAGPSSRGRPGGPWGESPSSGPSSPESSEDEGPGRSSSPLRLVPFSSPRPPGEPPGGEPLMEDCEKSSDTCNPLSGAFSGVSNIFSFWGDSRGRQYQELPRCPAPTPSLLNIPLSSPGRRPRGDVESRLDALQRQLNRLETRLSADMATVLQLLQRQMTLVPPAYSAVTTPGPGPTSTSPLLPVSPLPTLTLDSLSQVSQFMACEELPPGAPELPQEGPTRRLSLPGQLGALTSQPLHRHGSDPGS

[6] = DRUGMATRIX: Glutamate, NMDA, Phencyclidine radioligand binding (ligand: [3H] TCP); assay type: cell membranes, Rattus norvegicus, Wistar, Cerebral cortex, Membrane; conditions: Not Active = under 50% inhibition at 10 µM
[7] = molecular target: 5-hydroxytryptamine receptor 2B (Homo sapiens, UniProt P41595); assay type: cell membranes, CHO-K1, Membrane; note: in other assays of this panel Not Active means under 50% inhibition at 10 µM
5-hydroxytryptamine receptor 2B, sequence (P41595 whole entry): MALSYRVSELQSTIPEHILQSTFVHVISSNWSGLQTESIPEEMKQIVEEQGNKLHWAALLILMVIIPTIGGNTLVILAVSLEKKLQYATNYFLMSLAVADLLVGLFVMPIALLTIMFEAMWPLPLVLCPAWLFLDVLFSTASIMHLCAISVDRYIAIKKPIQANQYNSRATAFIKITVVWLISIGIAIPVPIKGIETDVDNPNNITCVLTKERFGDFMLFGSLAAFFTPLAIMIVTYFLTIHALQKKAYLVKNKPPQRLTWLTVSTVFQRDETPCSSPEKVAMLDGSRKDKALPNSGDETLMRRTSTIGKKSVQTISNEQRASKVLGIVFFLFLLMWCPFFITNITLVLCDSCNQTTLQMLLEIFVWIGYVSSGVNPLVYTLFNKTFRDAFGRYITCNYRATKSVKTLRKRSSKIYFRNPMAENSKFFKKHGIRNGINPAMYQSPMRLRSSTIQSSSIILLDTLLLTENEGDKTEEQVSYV

Cytochrome P450 2E1, sequence (P05181 whole entry): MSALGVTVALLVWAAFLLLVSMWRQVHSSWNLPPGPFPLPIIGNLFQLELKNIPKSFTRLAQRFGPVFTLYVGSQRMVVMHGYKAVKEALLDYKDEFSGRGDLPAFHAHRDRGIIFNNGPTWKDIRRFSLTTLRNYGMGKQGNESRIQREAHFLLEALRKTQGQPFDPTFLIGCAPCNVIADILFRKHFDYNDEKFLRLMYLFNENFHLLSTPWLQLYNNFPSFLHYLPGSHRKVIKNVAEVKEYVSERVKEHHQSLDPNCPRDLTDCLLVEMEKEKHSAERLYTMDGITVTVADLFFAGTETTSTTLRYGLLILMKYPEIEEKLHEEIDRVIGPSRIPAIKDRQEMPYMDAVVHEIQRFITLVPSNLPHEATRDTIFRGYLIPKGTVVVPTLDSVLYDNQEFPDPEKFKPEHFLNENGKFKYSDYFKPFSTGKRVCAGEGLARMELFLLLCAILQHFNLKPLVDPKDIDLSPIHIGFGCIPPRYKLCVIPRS

Molecule	IC50 [1]	Ki [1]	IC50 [2]	Ki [2]	IC50 [3]	Ki [3]	IC50 [4]	Ki [4]	IC50 [5]	Ki [5]	IC50 [6]	Ki [6]	IC50 ([7]; cho-k1)	IC50 ([4]; read-out: IC50) [µM]	Ki ([4]; read-out: Ki) [µM]	IC50 ([7]; read-out: IC50) [µM]	Ki ([7]; read-out: Ki) [µM]	Ki ([7]; cho-k1)
Cc1c(OCC(F)(F)F)ccnc1C[S+]([O-])c1nc2ccccc2[nH]1 (stereo unspecified) [LANSOPRAZOLE]	Not Active	Not Active	Not Active	Not Active	Not Active	Not Active	Not Active	Not Active	Not Active	Not Active	Not Active	Not Active	Not Active					
COc1ccc(C2C(=O)c3ccccc3C2=O)cc1 [ANISINDIONE]	Not Active	Not Active	Not Active	Not Active	Not Active	Not Active	Not Active	Not Active	Not Active	Not Active	Not Active	Not Active	Not Active					
COC(=O)Nc1nc2ccc([S+]([O-])c3ccccc3)cc2[nH]1 (stereo unspecified) [OXFENDAZOLE]	Not Active	Not Active	Not Active	Not Active	Not Active	Not Active	Not Active	Not Active	Not Active	Not Active	Not Active	Not Active	Not Active					
CC(C(=O)O)c1ccc2oc(-c3ccc(Cl)cc3)nc2c1 (stereo unspecified) [BENOXAPROFEN]	Not Active	Not Active	Not Active	Not Active	Not Active	Not Active	Not Active	Not Active	Not Active	Not Active	Not Active	Not Active	Not Active					
Cc1cc2c(OCC(CNC(C)(C)C)OC(=O)c3ccccc3)cccc2[nH]1 (stereo unspecified) [BOPINDOLOL]	Not Active	Not Active	Not Active	Not Active	Not Active	Not Active			Not Active	Not Active	Not Active	Not Active		2.9	2.82	1.52	0.969	
Nc1ccn([C@@H]2O[C@H](CO)[C@@H](O)C2(F)F)c(=O)n1 [GEMCITABINE]	Not Active	Not Active	Not Active	Not Active	Not Active	Not Active	Not Active	Not Active	Not Active	Not Active	Not Active	Not Active	Not Active					
COc1ccc2[nH]cc(CCNC(C)=O)c2c1 [MELATONIN]	Not Active	Not Active	Not Active	Not Active	Not Active	Not Active	Not Active	Not Active	Not Active	Not Active	Not Active	Not Active	Not Active					
GADOPENTETATE DIMEGLUMINE	Not Active	Not Active	Not Active	Not Active	Not Active	Not Active	Not Active	Not Active	Not Active	Not Active	Not Active	Not Active	Not Active					Not Active
C#CC1(O)CC[C@H]2[C@@H]3CCC4=CC(=O)CC[C@@H]4[C@H]3CC[C@@]21CC (stereo partly specified) [NORGESTREL]	Not Active	Not Active	Not Active	Not Active	Not Active	Not Active	Not Active	Not Active	Not Active	Not Active	Not Active	Not Active	Not Active					
C[n+]1ccc(-c2cc[n+](C)cc2)cc1.[Cl-].[Cl-] [PARAQUAT DICHLORIDE]	Not Active	Not Active	Not Active	Not Active	Not Active	Not Active	Not Active	Not Active	Not Active	Not Active	Not Active	Not Active	Not Active					
C[C@@H]1CC[C@@]2(OC1)O[C@H]1[C@@H](O)[C@H]3[C@@H]4CC[C@H]5C[C@@H](O[C@@H]6O[C@H](CO)[C@H](O[C@@H]7O[C@H](CO)C(O)[C@H](O[C@@H]8OC[C@@H](O)[C@H](O)[C@H]8O)[C@H]7O[C@@H]7O[C@H](CO)[C@H](O)[C@H](O[C@@H]8O[C@H](CO)[C@@H](O)[C@H](O)[C@H]8O)[C@H]7O)[C@H](O)[C@H]6O)[C@H](O)C[C@]5(C)[C@H]4CC[C@]3(C)[C@H]1[C@@H]2C (stereo partly specified) [DIGITONIN]	Not Active	Not Active	Not Active	Not Active	Not Active	Not Active	Not Active	Not Active	Not Active	Not Active	Not Active	Not Active	Not Active					
O=C1CN=C(c2ccccc2Cl)c2cc([N+](=O)[O-])ccc2N1 [CLONAZEPAM]	Not Active	Not Active	Not Active	Not Active	Not Active	Not Active	Not Active	Not Active	Not Active	Not Active	Not Active	Not Active	Not Active					
C[C@@H](CO)NC(=O)[C@@H]1C=C2c3cccc4[nH]cc(c34)C[C@H]2N(C)C1 [ERGONOVINE]	Not Active	Not Active	Not Active	Not Active	Not Active	Not Active	Not Active	Not Active	Not Active	Not Active	Not Active	Not Active				0.00414	0.00263	
CCn1cc(C(=O)O)c(=O)c2cnc(N3CCCC3)nc21 [PIROMIDIC ACID]	Not Active	Not Active	Not Active	Not Active	Not Active	Not Active	Not Active	Not Active	Not Active	Not Active	Not Active	Not Active	Not Active					
C[C@@H]1C[C@H]2[C@@H]3CCC4=CC(=O)C=C[C@]4(C)[C@@]3(F)[C@@H](O)C[C@]2(C)[C@H]1C(=O)CO [DESOXIMETASONE]	Not Active	Not Active	Not Active	Not Active	Not Active	Not Active	Not Active	Not Active	Not Active	Not Active	Not Active	Not Active	Not Active					
CN(C)CC[C@@H](c1ccc(Cl)cc1)c1ccccn1 [DEXCHLORPHENIRAMINE]	Not Active	Not Active	Not Active	Not Active	Not Active	Not Active			Not Active	Not Active	Not Active	Not Active	Not Active	3.81	3.7			
